Data as given in patent publication US9540355B2, “Irciniastatin analogues” (priority 2013, dated 2017).

How the values were obtained:
[1] = tested on: MALME-3M; conditions: melanoma MALME-3M; read-out: LC50 (the source's name); cited from earlier work
[2] = tested on: panel of 60 human cancer cell lines; conditions: cited from earlier work
[3] = tested on: T-47D; conditions: breast cancer T-47D; read-out: LC50 (the source's name); cited from earlier work
[4] = tested on: BXPC-3; conditions: pancreas BXPC-3; cited from earlier work
[5] = tested on: CCRF-CEM; conditions: leukemia CCRF-CEM; cited from earlier work
[6] = tested on: P388 murine lymphocytic leukemia cell line; conditions: cited from earlier work
[7] = tested on: LOX IMVI; conditions: melanoma LOX IMVI; read-out: LC50 (the source's name); cited from earlier work
[8] = tested on: human umbilical vein endothelial cells (HUVEC); conditions: normal endothelial HUVEC; cited from earlier work
[9] = tested on: IMR-90 human fibroblast cells; assay: IMR-90 cytotoxicity assay; type: cell-based; conditions: IMR-90, 72 h, quiescent non-dividing cells, 0.1% FBS, 3 days incubation, read-out: IC50 (nM) Quiescent IMP-90
Excerpt: IMR-90 Cytotoxicity Assay.
To evaluate the effect of compounds of the invention on non-proliferating normal cells, an in vitro cytotoxicity assay developed to distinguish between true antiproliferative activity and general cellular cytotoxicity unrelated to proliferation was used. Rudolph-Owen L A, Salvato K, Cheng C, Wu J, Towle M J and Littlefield B A: A 96-well plate cell-based assay to quantify undesired cytotoxic effects against quiescent non-dividing cells. Proc Amer Assoc Cancer Res 45: 264-265, 2004. In brief, IMR-90 human fibroblast cells, obtained from ATCC, were grown for 4 days to confluency in MEM containing 10% FBS and supplemented with L-glutamine, penicillin/streptomycin. After washing, the medium was replaced with complete MEM containing 0.1% FBS and the cells were cultured for 3 additional days to achieve complete quiescence. A compound of the invention or vehicle control was then added in the continued presence of 0.1% FBS, followed by incubation for 3 days at 37° C. Cell viability was assessed by the measurement of cellular ATPlevels using CellTiter-Glo reagent (Promega).

[10] = tested on: NCI/ADR-RES; conditions: breast cancer NCI/ADR-RES; read-out: LC50 (the source's name); cited from earlier work
[11] = tested on: HT29; conditions: colon cancer HT29; read-out: LC50 (the source's name); cited from earlier work
[12] = tested on: DU-145; conditions: prostate DU-145; cited from earlier work
[13] = tested on: MCF7; conditions: breast cancer MCF7; read-out: LC50 (the source's name); cited from earlier work
[14] = tested on: MOLT-4; conditions: leukemia MOLT-4; read-out: LC50 (the source's name); cited from earlier work
[15] = tested on: UACC-62; conditions: melanoma UACC-62; read-out: LC50 (the source's name); cited from earlier work
[16] = tested on: NCI-H460; conditions: lung NCI-H460; cited from earlier work
[17] = tested on: SW-620; conditions: colon cancer SW-620; read-out: LC50 (the source's name); cited from earlier work
[18] = tested on: SK-MEL-5; conditions: melanoma SK-MEL-5; read-out: LC50 (the source's name); cited from earlier work
[19] = tested on: HCC-2998; conditions: colon cancer HCC-2998; read-out: LC50 (the source's name); cited from earlier work
[20] = tested on: several solid tumor cell lines; conditions: cited from earlier work
[21] = tested on: SR; conditions: leukemia SR; read-out: LC50 (the source's name); cited from earlier work
[22] = tested on: SF-268; conditions: CNS SF-268; cited from earlier work
[23] = tested on: HCT-116; conditions: colon cancer HCT-116; read-out: LC50 (the source's name); cited from earlier work
[24] = tested on: HS 578T; conditions: breast cancer HS 578T; cited from earlier work

SMILES: C=C(C)C[C@H](OC)[C@H](O)C(=O)N[C@@H](OC)[C@@H]1C[C@@H](O)C(C)(C)[C@@H](C[C@H](O)[C@@H](C)[C@H]2Cc3c(C)c(O)cc(O)c3C(=O)O2)O1 [Irciniastatin A, (+)-Irciniastatin A]
- CC50 [1]: < 0.0025 µM
- activity differential as compared to other cell lines within their respective subsets ([2]; MDA-MB-35, SK-MEL-28, UACC-62, HCT-116 versus other lines of the subset): greater than 10,000 fold
- activities ([2]; MDA-MB-35 breast cancer, SK-MEL-28 and UACC-62 melanoma, HCT-116 colon cancer cell lines): low nanomolar range
- CC50 [3]: 13.6 µM
- Growth Inhibition of Cancer Cell Lines (GI50) [4]: 3.8 ng/mL
- LC50 [5]: > 25 µM
- Growth Inhibition of Cancer Cell Lines (GI50) [6]: 4.13 ng/mL
- CC50 [7]: > 25 µM
- Growth Inhibition of Cancer Cell Lines (GI50) [8]: <0.5 ng/mL
- IC50 [9]: 27 nM
- CC50 [10]: 19 µM
- CC50 [11]: > 25 µM
- Growth Inhibition of Cancer Cell Lines (GI50) [12]: 2.4 ng/mL
- CC50 [13]: > 25 µM
- CC50 [14]: > 25 µM
- CC50 [15]: < 0.0025 µM
- Growth Inhibition of Cancer Cell Lines (GI50) [16]: <0.1 ng/mL
- CC50 [17]: > 25 µM
- CC50 [18]: < 0.0025 µM
- CC50 [19]: 0.36 µM
- hollow fiber assay overall score ([20]; compounds considered active score 20 or higher): 34
- hollow fiber assay score against intraperitoneal fibers ([20]; intraperitoneal fibers): 28
- hollow fiber assay score against subcutaneous fibers ([20]; subcutaneous fibers): 6
- CC50 [21]: > 25 µM
- Growth Inhibition of Cancer Cell Lines (GI50) [22]: 3.4 ng/mL
- CC50 [23]: < 0.0025 µM
- LC50 [24]: > 25 µM
